{"source": "patent US20250243196A1", "about": "“CITRON KINASE INHIBITORS” (The Cleveland Clinic Foundation, priority 2021, published 2025)", "key": {"[1]": {"molecular_target": "ErbB4(h) (Homo sapiens (Human), UniProt Q15303)", "assay": "KinaseProfiler panel", "format": "biochemical", "set-up": "dose or concentration left out as unconfirmed", "conditions": "activity remaining"}, "[2]": {"molecular_target": "WNK3(h) (Homo sapiens (Human), UniProt Q9BYP7)", "sequence (Q9BYP7 whole entry)": "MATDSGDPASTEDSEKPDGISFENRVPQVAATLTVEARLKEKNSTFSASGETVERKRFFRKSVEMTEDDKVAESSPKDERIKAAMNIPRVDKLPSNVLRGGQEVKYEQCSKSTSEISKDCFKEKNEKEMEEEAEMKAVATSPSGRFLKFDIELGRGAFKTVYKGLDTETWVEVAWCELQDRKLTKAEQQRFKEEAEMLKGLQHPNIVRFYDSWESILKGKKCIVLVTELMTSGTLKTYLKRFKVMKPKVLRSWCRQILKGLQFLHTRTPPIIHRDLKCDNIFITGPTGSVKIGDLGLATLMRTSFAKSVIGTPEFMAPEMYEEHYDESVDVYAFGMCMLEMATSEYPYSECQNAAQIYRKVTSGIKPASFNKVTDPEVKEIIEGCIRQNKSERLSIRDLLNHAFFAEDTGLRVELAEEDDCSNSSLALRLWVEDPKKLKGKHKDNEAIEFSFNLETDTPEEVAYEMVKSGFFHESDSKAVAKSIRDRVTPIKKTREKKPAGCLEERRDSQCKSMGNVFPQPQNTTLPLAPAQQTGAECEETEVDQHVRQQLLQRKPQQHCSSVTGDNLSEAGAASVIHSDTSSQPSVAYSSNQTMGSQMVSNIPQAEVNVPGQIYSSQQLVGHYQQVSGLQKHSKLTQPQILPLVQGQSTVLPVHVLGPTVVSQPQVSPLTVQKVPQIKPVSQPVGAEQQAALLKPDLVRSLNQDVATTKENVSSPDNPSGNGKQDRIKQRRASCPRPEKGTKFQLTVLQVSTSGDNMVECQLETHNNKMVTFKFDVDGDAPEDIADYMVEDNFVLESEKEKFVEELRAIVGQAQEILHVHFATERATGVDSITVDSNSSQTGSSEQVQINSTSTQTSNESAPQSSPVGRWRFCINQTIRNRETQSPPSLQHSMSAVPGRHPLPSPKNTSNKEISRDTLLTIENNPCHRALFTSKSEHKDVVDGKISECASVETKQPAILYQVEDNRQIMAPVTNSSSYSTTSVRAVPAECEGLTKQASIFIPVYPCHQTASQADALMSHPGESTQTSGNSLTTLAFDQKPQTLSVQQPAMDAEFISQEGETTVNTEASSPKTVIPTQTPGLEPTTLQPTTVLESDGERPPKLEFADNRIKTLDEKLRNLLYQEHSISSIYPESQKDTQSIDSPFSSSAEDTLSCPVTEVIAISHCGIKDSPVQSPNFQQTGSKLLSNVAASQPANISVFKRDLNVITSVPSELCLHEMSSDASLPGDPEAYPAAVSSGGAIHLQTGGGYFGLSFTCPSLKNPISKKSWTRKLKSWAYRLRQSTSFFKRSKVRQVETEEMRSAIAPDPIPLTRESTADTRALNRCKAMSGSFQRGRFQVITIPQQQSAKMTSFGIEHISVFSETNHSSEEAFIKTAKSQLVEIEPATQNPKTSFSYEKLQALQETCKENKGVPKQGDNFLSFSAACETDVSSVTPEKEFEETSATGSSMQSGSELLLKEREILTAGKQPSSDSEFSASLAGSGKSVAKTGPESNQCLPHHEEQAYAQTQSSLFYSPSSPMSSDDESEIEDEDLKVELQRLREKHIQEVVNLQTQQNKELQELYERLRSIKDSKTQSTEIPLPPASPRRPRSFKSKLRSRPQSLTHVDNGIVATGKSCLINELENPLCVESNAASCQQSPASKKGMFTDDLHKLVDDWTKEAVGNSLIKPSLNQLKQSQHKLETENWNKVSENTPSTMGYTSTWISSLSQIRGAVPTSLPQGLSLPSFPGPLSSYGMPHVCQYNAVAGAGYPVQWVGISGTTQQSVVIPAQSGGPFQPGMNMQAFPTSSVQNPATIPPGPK", "assay": "KinaseProfiler panel", "format": "biochemical", "set-up": "dose or concentration left out as unconfirmed", "conditions": "activity remaining"}, "[3]": {"molecular_target": "CHK1(h) (Homo sapiens (Human), UniProt O14757)", "assay": "KinaseProfiler panel", "format": "biochemical", "set-up": "dose or concentration left out as unconfirmed", "conditions": "activity remaining"}, "[4]": {"molecular_target": "IRAK4(h) (Homo sapiens (Human), UniProt Q9NWZ3)", "assay": "KinaseProfiler panel", "format": "biochemical", "set-up": "dose or concentration left out as unconfirmed", "conditions": "activity remaining"}, "[5]": {"molecular_target": "TTBK2(h) (Homo sapiens (Human), UniProt Q6IQ55)", "assay": "KinaseProfiler panel", "format": "biochemical", "set-up": "dose or concentration left out as unconfirmed", "conditions": "activity remaining"}, "[6]": {"molecular_target": "PKR(h) (Homo sapiens (Human), UniProt P19525)", "assay": "KinaseProfiler panel", "format": "biochemical", "set-up": "dose or concentration left out as unconfirmed", "conditions": "activity remaining"}, "[7]": {"molecular_target": "TAO2(h) (Homo sapiens (Human), UniProt Q9UL54)", "assay": "KinaseProfiler panel", "format": "biochemical", "conditions": "activity remaining"}, "[8]": {"molecular_target": "LATS2(h) (Homo sapiens (Human), UniProt Q9NRM7)", "sequence (Q9NRM7 whole entry)": "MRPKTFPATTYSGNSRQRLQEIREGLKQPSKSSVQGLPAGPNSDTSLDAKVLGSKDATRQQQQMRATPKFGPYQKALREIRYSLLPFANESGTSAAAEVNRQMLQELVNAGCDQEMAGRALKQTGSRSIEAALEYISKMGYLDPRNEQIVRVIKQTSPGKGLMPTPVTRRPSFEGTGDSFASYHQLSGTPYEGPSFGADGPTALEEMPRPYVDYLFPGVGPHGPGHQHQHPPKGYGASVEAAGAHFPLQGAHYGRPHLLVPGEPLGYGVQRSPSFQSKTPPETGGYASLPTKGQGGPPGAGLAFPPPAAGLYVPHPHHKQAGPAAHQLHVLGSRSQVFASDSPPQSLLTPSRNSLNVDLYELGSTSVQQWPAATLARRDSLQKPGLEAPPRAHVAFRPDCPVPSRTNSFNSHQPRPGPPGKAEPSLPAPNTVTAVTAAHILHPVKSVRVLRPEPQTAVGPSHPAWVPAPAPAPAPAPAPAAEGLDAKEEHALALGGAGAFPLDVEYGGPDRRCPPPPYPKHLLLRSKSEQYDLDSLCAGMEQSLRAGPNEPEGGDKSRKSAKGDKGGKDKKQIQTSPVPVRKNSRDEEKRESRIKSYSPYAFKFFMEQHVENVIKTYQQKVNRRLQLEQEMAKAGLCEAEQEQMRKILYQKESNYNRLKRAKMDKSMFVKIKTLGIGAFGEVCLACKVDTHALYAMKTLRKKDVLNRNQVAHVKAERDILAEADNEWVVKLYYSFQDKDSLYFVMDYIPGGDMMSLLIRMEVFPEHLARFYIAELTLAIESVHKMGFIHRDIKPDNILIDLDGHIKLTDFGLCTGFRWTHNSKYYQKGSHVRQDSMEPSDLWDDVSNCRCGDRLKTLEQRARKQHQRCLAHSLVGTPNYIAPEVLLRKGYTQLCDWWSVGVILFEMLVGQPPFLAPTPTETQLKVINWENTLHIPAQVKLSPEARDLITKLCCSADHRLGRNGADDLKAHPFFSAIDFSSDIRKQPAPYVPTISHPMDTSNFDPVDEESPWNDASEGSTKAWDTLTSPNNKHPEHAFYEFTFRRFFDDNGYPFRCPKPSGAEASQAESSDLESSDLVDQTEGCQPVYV", "assay": "KinaseProfiler panel", "format": "biochemical", "set-up": "dose or concentration left out as unconfirmed", "conditions": "activity remaining"}, "[9]": {"molecular_target": "PKG1α(h) (Homo sapiens (Human), UniProt Q13976)", "sequence (Q13976 whole entry)": "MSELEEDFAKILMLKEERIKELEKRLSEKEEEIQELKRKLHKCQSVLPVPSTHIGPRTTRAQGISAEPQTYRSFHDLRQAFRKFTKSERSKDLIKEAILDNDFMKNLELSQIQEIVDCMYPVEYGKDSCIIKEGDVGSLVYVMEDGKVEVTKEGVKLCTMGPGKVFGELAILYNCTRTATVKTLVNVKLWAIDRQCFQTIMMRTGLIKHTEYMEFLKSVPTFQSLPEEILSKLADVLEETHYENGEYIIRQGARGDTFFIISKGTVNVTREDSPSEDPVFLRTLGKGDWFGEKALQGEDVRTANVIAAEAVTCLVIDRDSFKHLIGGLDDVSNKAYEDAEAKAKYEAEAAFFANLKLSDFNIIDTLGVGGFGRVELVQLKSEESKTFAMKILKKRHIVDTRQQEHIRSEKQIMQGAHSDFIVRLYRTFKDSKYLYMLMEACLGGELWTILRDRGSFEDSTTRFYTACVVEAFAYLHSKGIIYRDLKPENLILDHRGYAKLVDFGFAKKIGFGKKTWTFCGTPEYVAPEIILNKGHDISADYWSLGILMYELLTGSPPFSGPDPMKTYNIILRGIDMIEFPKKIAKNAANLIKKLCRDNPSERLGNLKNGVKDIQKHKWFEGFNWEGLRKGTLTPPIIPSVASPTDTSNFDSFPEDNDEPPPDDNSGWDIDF", "assay": "KinaseProfiler panel", "format": "biochemical", "set-up": "dose or concentration left out as unconfirmed", "conditions": "activity remaining"}, "[10]": {"molecular_target": "Hck(h) activated (Homo sapiens (Human), UniProt P08631)", "sequence (P08631 whole entry)": "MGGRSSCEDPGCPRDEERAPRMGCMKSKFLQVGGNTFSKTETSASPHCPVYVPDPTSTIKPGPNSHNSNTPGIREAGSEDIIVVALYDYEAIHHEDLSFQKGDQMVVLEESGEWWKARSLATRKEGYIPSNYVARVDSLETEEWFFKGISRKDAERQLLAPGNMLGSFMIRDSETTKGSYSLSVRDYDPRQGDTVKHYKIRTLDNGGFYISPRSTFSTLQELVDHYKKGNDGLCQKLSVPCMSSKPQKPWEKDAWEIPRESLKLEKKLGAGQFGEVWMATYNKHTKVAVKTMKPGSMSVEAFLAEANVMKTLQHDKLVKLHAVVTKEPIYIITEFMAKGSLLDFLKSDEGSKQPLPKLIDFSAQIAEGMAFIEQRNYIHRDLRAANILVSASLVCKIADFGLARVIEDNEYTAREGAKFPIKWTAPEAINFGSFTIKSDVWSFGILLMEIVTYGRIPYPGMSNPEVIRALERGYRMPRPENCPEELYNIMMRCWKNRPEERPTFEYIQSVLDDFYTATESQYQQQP", "assay": "KinaseProfiler panel", "format": "biochemical", "set-up": "dose or concentration left out as unconfirmed", "conditions": "activity remaining"}, "[11]": {"molecular_target": "EphA1(h) (Homo sapiens (Human), UniProt P21709)", "sequence (P21709 26-976)": "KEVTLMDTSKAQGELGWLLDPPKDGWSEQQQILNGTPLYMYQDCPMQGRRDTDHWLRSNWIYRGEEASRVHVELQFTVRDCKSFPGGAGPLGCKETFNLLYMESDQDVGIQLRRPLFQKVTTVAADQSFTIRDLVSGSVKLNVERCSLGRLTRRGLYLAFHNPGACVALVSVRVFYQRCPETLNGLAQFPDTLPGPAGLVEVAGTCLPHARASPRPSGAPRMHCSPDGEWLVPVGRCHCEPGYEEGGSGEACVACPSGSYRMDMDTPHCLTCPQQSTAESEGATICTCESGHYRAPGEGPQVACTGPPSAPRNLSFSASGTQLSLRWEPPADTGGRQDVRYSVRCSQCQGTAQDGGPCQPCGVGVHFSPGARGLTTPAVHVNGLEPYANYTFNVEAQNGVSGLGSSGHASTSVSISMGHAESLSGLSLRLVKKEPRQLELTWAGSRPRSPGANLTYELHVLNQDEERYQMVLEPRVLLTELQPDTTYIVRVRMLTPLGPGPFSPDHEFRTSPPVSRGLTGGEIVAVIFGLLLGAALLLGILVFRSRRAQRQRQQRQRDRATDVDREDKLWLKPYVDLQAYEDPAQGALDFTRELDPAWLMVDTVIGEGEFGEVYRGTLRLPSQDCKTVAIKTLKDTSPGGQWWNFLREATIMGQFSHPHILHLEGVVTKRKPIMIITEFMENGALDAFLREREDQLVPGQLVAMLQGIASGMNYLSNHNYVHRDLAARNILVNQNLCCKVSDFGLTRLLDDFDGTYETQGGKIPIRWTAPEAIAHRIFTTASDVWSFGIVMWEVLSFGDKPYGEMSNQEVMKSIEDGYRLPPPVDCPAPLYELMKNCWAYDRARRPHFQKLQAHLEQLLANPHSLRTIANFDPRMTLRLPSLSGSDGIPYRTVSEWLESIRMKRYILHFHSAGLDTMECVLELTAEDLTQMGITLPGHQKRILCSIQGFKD", "assay": "KinaseProfiler panel", "format": "biochemical", "set-up": "dose or concentration left out as unconfirmed", "conditions": "activity remaining"}, "[12]": {"molecular_target": "OSR1(h) (Homo sapiens (Human), UniProt O95747)", "assay": "KinaseProfiler panel", "format": "biochemical", "set-up": "dose or concentration left out as unconfirmed", "conditions": "activity remaining"}, "[13]": {"tested_on": "NCI-60 human tumor cell line panel", "assay": "NCI-60 human tumor cell line screen (GI50)", "format": "cell-based"}}, "note": "Like-named read-outs stand apart in the source and are kept apart here."}
{"smiles": "Cc1cc2c(-c3ccc(NC(=O)[C@H](N)CC(C)(C)C)cc3C)ccnc2[nH]1", "note": "[Compound F-90, (2R)-2-Amino-4,4-dimethyl-N-[3-methyl-4-(2-methyl-1H-pyrrolo[2,3-b]pyridin-4-yl)phenyl]pentanamide]", "values": [{"measurement": "% Activity", "setting": "[1]", "value": 94, "unit": "%"}, {"measurement": "% Activity", "setting": "[2]", "value": 85, "unit": "%"}, {"measurement": "% Activity", "setting": "[3]", "value": 108, "unit": "%"}, {"measurement": "% Activity", "setting": "[4]", "value": 90, "unit": "%"}, {"measurement": "% Activity", "setting": "[5]", "value": 94, "unit": "%"}, {"measurement": "% Activity", "setting": "[6]", "value": 85, "unit": "%"}, {"measurement": "% Activity", "setting": "[7]", "value": 90, "unit": "%"}, {"measurement": "% Activity", "setting": "[8]", "value": 102, "unit": "%"}, {"measurement": "% Activity", "setting": "[9]", "value": 118, "unit": "%"}, {"measurement": "% Activity", "setting": "[10]", "value": 111, "unit": "%"}, {"measurement": "% Activity", "setting": "[11]", "value": 92, "unit": "%"}, {"measurement": "% Activity", "setting": "[12]", "value": 80, "unit": "%"}, {"measurement": "GI50", "setting": "[13]; 786-0, Renal Cancer", "value": "−5.744 Log(M)"}, {"measurement": "GI50", "setting": "[13]; A498, Renal Cancer", "value": "−5.657 Log(M)"}, {"measurement": "GI50", "setting": "[13]; A549/ATCC, Non-Small Cell Lung Cancer", "value": "−4.985 Log(M)"}, {"measurement": "GI50", "setting": "[13]; ACHN, Renal Cancer", "value": "−4.978 Log(M)"}, {"measurement": "GI50", "setting": "[13]; BT-549, Breast Cancer", "value": "−5.200 Log(M)"}, {"measurement": "GI50", "setting": "[13]; CAKI-1, Renal Cancer", "value": "−5.347 Log(M)"}, {"measurement": "GI50", "setting": "[13]; CCRF-CEM, Leukemia", "value": "−5.267 Log(M)"}, {"measurement": "GI50", "setting": "[13]; COLO 205, Colon Cancer", "value": "−5.741 Log(M)"}, {"measurement": "GI50", "setting": "[13]; DU-145, Prostate Cancer", "value": "−4.905 Log(M)"}, {"measurement": "GI50", "setting": "[13]; EKVX, Non-Small Cell Lung Cancer", "value": "−4.950 Log(M)"}, {"measurement": "GI50", "setting": "[13]; HCC-2998, Colon Cancer", "value": "−5.236 Log(M)"}, {"measurement": "GI50", "setting": "[13]; HCT-15, Colon Cancer", "value": "−5.345 Log(M)"}, {"measurement": "GI50", "setting": "[13]; HCT-116, Colon Cancer", "value": "−5.314 Log(M)"}, {"measurement": "GI50", "setting": "[13]; HL-60(TB), Leukemia", "value": "−5.539 Log(M)"}, {"measurement": "GI50", "setting": "[13]; HOP-62, Non-Small Cell Lung Cancer", "value": "−4.941 Log(M)"}, {"measurement": "GI50", "setting": "[13]; HOP-92, Non-Small Cell Lung Cancer", "value": "−5.574 Log(M)"}, {"measurement": "GI50", "setting": "[13]; HS 578T, Breast Cancer", "value": "−5.849 Log(M)"}, {"measurement": "GI50", "setting": "[13]; HT29, Colon Cancer", "value": "−5.565 Log(M)"}, {"measurement": "GI50", "setting": "[13]; Homo sapiens, 786-0, 786-0, Renal Cancer, read-out: GI50", "value": 1.8, "unit": "µM"}, {"measurement": "GI50", "setting": "[13]; Homo sapiens, A498, A498, Renal Cancer, read-out: GI50", "value": 2.2, "unit": "µM"}, {"measurement": "GI50", "setting": "[13]; Homo sapiens, A549, A549/ATCC, Non-Small Cell Lung Cancer, read-out: GI50", "value": 10.3, "unit": "µM"}, {"measurement": "GI50", "setting": "[13]; Homo sapiens, ACHN, Renal Cancer, read-out: GI50", "value": 10.5, "unit": "µM"}, {"measurement": "GI50", "setting": "[13]; Homo sapiens, BT-549, BT-549, Breast Cancer, read-out: GI50", "value": 6.3, "unit": "µM"}, {"measurement": "GI50", "setting": "[13]; Homo sapiens, CAKI-1, CAKI-1, Renal Cancer, read-out: GI50", "value": 4.5, "unit": "µM"}, {"measurement": "GI50", "setting": "[13]; Homo sapiens, CCRF-CEM, Leukemia, read-out: GI50", "value": 5.4, "unit": "µM"}, {"measurement": "GI50", "setting": "[13]; Homo sapiens, COLO 205, COLO 205, Colon Cancer, read-out: GI50", "value": 1.8, "unit": "µM"}, {"measurement": "GI50", "setting": "[13]; Homo sapiens, DU-145, DU-145, Prostate Cancer, read-out: GI50", "value": 12.4, "unit": "µM"}, {"measurement": "GI50", "setting": "[13]; Homo sapiens, EKVX, Non-Small Cell Lung Cancer, read-out: GI50", "value": 11.2, "unit": "µM"}, {"measurement": "GI50", "setting": "[13]; Homo sapiens, HCC 2998, HCC-2998, Colon Cancer, read-out: GI50", "value": 5.8, "unit": "µM"}, {"measurement": "GI50", "setting": "[13]; Homo sapiens, HCT-15, HCT-15, Colon Cancer, read-out: GI50", "value": 4.5, "unit": "µM"}, {"measurement": "GI50", "setting": "[13]; Homo sapiens, HCT-116, HCT-116, Colon Cancer, read-out: GI50", "value": 4.9, "unit": "µM"}, {"measurement": "GI50", "setting": "[13]; Homo sapiens, HL-60, HL-60(TB), Leukemia, read-out: GI50", "value": 2.9, "unit": "µM"}, {"measurement": "GI50", "setting": "[13]; Homo sapiens, HOP-62, HOP-62, Non-Small Cell Lung Cancer, read-out: GI50", "value": 11.4, "unit": "µM"}, {"measurement": "GI50", "setting": "[13]; Homo sapiens, HOP-92, HOP-92, Non-Small Cell Lung Cancer, read-out: GI50", "value": 2.7, "unit": "µM"}, {"measurement": "GI50", "setting": "[13]; Homo sapiens, HT-29, HT29, Colon Cancer, read-out: GI50", "value": 2.7, "unit": "µM"}, {"measurement": "GI50", "setting": "[13]; Homo sapiens, Hs-578T, HS 578T, Breast Cancer, read-out: GI50", "value": 1.4, "unit": "µM"}, {"measurement": "GI50", "setting": "[13]; Homo sapiens, IGROV-1, IGROV1, Ovarian Cancer, read-out: GI50", "value": 12.2, "unit": "µM"}, {"measurement": "GI50", "setting": "[13]; Homo sapiens, K562, K-562, Leukemia, read-out: GI50", "value": 2.8, "unit": "µM"}, {"measurement": "GI50", "setting": "[13]; Homo sapiens, KM12, KM12, Colon Cancer, read-out: GI50", "value": 6.1, "unit": "µM"}, {"measurement": "GI50", "setting": "[13]; Homo sapiens, LOX IMVI, Melanoma, read-out: GI50", "value": 6.2, "unit": "µM"}, {"measurement": "GI50", "setting": "[13]; Homo sapiens, M14, M14, Melanoma, read-out: GI50", "value": 11, "unit": "µM"}, {"measurement": "GI50", "setting": "[13]; Homo sapiens, MCF7, MCF7, Breast Cancer, read-out: GI50", "value": 5.5, "unit": "µM"}, {"measurement": "GI50", "setting": "[13]; Homo sapiens, MDA-MB-231, MDA-MB-231/ATCC, Breast Cancer, read-out: GI50", "value": 7.4, "unit": "µM"}, {"measurement": "GI50", "setting": "[13]; Homo sapiens, MDA-MB-435, MDA-MB-435, Breast Cancer, read-out: GI50", "value": 7, "unit": "µM"}, {"measurement": "GI50", "setting": "[13]; Homo sapiens, MDA-MB-468, MDA-MB-468, Breast Cancer, read-out: GI50", "value": 2.7, "unit": "µM"}, {"measurement": "GI50", "setting": "[13]; Homo sapiens, MOLT-4, MOLT-4, Leukemia, read-out: GI50", "value": 4.7, "unit": "µM"}, {"measurement": "GI50", "setting": "[13]; Homo sapiens, Malme-3M, Melanoma, read-out: GI50", "value": 10.2, "unit": "µM"}, {"measurement": "GI50", "setting": "[13]; Homo sapiens, NCI-H23, NCI-H23, Non-Small Cell Lung Cancer, read-out: GI50", "value": 12.2, "unit": "µM"}, {"measurement": "GI50", "setting": "[13]; Homo sapiens, NCI-H226, NCI-H226, Non-Small Cell Lung Cancer, read-out: GI50", "value": 10.7, "unit": "µM"}, {"measurement": "GI50", "setting": "[13]; Homo sapiens, NCI-H322M, Non-Small Cell Lung Cancer, read-out: GI50", "value": 14.3, "unit": "µM"}, {"measurement": "GI50", "setting": "[13]; Homo sapiens, NCI-H460, NCI-H460, Non-Small Cell Lung Cancer, read-out: GI50", "value": 5.7, "unit": "µM"}, {"measurement": "GI50", "setting": "[13]; Homo sapiens, NCI-H522, NCI-H522, Non-Small Cell Lung Cancer, read-out: GI50", "value": 13, "unit": "µM"}, {"measurement": "GI50", "setting": "[13]; Homo sapiens, NCI/ADR-RES, Breast Cancer, read-out: GI50", "value": 13.4, "unit": "µM"}, {"measurement": "GI50", "setting": "[13]; Homo sapiens, OVCAR-3, OVCAR-3, Ovarian Cancer, read-out: GI50", "value": 11.6, "unit": "µM"}]}
